In patent US7902361B2, “Pyrimidin-4-yl-3, 4-thione compounds and their use in therapy” (Cyclacel Limited, priority 2003, dated 2011):
pIC50, pKi: −log10 of the molar value. Marks after values point to notes of the source that are not given here.

What was measured:
CDK2/cyclin E = CDK2/cyclin E (Homo sapiens, UniProt P24941); test: Kinase assay CDK2/cyclin E; assay type: biochemical; conditions: Ki calculated (Cheng-Prusoff) from experimentally determined IC50 and Km,ATP; read-out: Kinase Inhibition Ki CDK2 - cyclin E
Outline: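 Radiometric assays measured transfer of radioactive phosphate from ATP onto polypeptide substrates, using 2-4 μg recombinant active enzyme in buffer typically containing 25 mM β-glycerophosphate, 20 mM MOPS, 5 mM EGTA, 1 mM DTT and 1 mM Na3VO3 at pH 7.4. Reactions were stopped on ice, filtered on P81 or GF/C plates and washed with orthophosphoric acid. Incorporated radioactivity was scintillation-counted.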

CDK7/cyclin H = CDK7/cyclin H (Homo sapiens, UniProt P50613); test: Kinase assay CDK7/cyclin H; assay type: biochemical; conditions: Ki calculated (Cheng-Prusoff) from experimentally determined IC50 and Km,ATP; read-out: Kinase Inhibition Ki CDK7 - cyclin H
Chain of CDK7/cyclin H (P50613 whole entry, species assumed): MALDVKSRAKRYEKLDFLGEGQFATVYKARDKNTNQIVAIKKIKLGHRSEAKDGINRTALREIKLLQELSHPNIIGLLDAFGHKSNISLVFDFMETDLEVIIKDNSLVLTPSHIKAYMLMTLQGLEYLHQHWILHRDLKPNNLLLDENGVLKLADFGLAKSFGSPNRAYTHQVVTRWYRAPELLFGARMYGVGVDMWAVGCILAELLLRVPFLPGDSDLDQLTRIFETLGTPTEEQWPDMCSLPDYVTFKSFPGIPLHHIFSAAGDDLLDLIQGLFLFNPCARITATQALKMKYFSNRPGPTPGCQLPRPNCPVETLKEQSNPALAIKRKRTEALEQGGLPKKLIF
Chain of CDK7/cyclin H (P51946 whole entry partner, species assumed): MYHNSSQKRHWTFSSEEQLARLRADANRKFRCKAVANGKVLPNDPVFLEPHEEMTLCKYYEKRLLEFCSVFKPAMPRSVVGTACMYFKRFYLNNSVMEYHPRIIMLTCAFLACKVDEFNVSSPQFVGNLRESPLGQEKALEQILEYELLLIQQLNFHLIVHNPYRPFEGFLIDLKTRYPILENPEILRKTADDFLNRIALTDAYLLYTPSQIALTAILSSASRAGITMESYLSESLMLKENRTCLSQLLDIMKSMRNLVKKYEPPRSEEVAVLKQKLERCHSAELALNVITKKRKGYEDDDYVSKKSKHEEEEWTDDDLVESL
Outline: (§1)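 Radiometric filter assays used recombinant kinases or complexes (2-4 μg) with appropriate polypeptide substrates in pH 7.4 β-glycerophosphate/MOPS buffer. Reactions were started with 15 mM MgCl2 and 100 μM ATP containing [γ-32P]-ATP and run at 30° C. Phosphate incorporated into substrate was counted by scintillation after washing.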

CDK9/cyclin T1 = CDK9/cyclin T1 (Homo sapiens, UniProt P50750); test: Kinase assay CDK9/cyclin T1; assay type: biochemical; conditions: Ki calculated (Cheng-Prusoff) from experimentally determined IC50 and Km,ATP; read-out: Kinase Inhibition Ki CDK9 - cyclin T1
Chain of CDK9/cyclin T1 (P50750 whole entry, species assumed): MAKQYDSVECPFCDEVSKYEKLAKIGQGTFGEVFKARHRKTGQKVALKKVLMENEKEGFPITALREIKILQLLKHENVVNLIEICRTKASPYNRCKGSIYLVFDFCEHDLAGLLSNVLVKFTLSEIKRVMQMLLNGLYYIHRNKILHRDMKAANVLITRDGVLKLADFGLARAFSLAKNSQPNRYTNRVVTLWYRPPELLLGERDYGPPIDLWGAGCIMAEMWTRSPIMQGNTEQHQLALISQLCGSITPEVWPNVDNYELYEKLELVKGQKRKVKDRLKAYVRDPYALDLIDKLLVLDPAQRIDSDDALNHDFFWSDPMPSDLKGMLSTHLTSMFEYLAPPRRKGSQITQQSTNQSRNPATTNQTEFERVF
Chain of CDK9/cyclin T1 (O60563 whole entry partner, species assumed): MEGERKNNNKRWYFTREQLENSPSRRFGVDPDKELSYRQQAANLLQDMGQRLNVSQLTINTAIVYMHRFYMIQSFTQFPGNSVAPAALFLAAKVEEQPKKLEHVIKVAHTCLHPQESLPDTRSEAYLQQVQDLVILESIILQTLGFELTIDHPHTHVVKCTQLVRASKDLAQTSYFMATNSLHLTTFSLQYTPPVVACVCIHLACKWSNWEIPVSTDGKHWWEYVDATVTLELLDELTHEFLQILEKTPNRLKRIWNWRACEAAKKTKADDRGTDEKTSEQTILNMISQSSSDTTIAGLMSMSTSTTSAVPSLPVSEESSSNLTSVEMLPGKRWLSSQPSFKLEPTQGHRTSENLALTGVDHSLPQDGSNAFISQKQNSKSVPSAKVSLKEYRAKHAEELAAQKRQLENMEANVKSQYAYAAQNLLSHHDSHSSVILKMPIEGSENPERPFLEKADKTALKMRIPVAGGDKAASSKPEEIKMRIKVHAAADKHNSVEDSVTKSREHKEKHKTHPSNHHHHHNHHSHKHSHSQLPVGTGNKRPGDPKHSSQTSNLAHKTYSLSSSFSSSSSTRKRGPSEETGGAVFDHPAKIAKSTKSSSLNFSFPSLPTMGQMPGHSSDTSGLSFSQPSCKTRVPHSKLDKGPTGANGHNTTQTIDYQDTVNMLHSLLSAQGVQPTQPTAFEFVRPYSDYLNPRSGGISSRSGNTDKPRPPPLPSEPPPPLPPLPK
Outline: as §1

GSK3β = biological target: T1, GSK3β (Homo sapiens, UniProt P49841); test: GSK3β in vitro kinase assay; assay type: biochemical; conditions: recombinant human GSK3β, 100 μM ATP
T1 construct: purchased New England Biolabs
T1 sequence (P49841 whole entry): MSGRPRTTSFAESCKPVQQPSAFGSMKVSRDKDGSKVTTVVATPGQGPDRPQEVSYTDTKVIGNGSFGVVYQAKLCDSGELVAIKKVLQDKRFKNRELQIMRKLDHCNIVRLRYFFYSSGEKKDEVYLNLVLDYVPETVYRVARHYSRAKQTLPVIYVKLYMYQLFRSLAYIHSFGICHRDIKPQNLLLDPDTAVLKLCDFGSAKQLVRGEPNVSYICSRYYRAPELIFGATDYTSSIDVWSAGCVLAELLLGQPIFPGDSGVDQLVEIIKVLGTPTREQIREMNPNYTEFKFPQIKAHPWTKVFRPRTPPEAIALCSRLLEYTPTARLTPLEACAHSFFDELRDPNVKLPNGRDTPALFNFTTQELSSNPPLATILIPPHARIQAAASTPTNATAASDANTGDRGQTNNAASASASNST
Outline: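 Radiometric filter-binding assay with GSK3β (1.5 units), 200 μM CREB phosphopeptide, 100 μM ATP plus [γ-32P]ATP, in 20 mM Tris HCl pH7.5, 5 mM DTT, 15 mM MgCl2, 2% DMSO; 30 min at 30° C, stopped with phosphoric acid. 32P incorporation counted by scintillation; IC50 from 10-point titration.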

GSK3α = biological target: T2, GSK3α (Homo sapiens, UniProt P49840); test: GSK3α in vitro kinase assay; assay type: biochemical; conditions: recombinant human GSK3α, 100 μM ATP
T2 construct: purchased Upstate
T2 sequence (P49840 whole entry): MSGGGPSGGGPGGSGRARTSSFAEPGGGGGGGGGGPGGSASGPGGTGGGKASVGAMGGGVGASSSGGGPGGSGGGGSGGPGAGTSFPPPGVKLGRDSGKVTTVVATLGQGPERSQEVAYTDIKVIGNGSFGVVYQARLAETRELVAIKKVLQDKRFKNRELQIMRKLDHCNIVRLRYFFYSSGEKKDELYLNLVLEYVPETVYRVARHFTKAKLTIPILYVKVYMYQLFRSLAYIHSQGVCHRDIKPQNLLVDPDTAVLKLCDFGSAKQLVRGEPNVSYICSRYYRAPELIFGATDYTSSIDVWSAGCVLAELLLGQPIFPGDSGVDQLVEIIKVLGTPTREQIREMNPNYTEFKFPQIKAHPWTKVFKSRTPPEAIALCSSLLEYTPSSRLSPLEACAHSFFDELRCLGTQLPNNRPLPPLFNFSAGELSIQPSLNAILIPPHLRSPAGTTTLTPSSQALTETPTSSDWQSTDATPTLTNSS
Description: Both isoforms of GSK3 (α and β) are involved in the regulation of glycogen synthase activity—key enzyme in the glycogen metabolism. The inhibitory potency of example compounds was determined using in vitro kinase assays with recombinant human GSK3-α and -β; the IC50 values determined are presented in Table 9.
A 10-point titration was set up to determine the IC50 values of selected example compounds against GSK3β. Assays were performed using 96-well microtiter plates with a final volume of 25 μL per well. Each assay contained 1.5 units of GSK3β(New England Biolabs), 200 μM CREB phosphopeptide ([…]pSYR, Alta Biosciences), 20 mM Tris HCl pH7.5, 5 mM DTT, 15 mM MgCl2 supplemented with 100 μM ATP and 0.5 μCi of [γ-^32P] ATP plus or minus inhibitor in 2% DMSO. Assays were carried out for 30 minutes at 30° C. before stopping the reaction by the addition of an equal volume of 75 mM aqueous phosphoric acid. Samples were then spotted onto a p81 filterplate (Whatman) and a vacuum was applied. Wells were washed 3 times with 200 μL of dilute aqueous phosphoric acid before the addition of 50 μL Microscint 40 per well. Incorporation of radioactivity was determined on a Topcount microplate scintillation counter (Packard).
GSK3α (Upstate) was assayed exactly as described above except that 1 ng of enzyme was added per assay point.

DYRK1A = biological target: T3, DYRK1A (Homo sapiens, UniProt Q13627); test: DYRK1A in vitro kinase assay; assay type: biochemical; conditions: recombinant human DYRK1A, 100 μM ATP
T3 construct: purchased Upstate
Text: Dual specificity tyrosine phosphorylation regulated kinase 1A (DYRK1A) has been proposed, amongst other functions, to play a role in the regulation of glycogen metabolism in a way similar to GSK3. Some of the example compounds of the present invention were screened against recombinant human DYRK1A in vitro and the determined IC50 values are shown in Table 9. According to our current knowledge inhibition of DYRK1A will have additional positive effect on stimulation of glycogen synthase.
A 10-point titration was set up to determine the IC50 values of selected example compounds against DYRK1A. Assays were performed using 96-well microtiter plates and a final volume of 25 μL/well. Each assay contained 2.3 milliunits of DYRK1A (Upstate), 50 μM Woodtide peptide ([…], Upstate), 20 mM Tris HCl pH 8.0, 10 mM DTT, 5 mM EGTA, 1 mM NaVO3, 31 mM β-glycerophosphate, 15 mM MgCl2 supplemented with 100 μM ATP and 0.5 μCi of [γ-^32P] ATP plus or minus inhibitor in 2% DMSO. Assays were carried out for 60 minutes at 30° C. before stopping the reaction by the addition of an equal volume of 75 mM aqueous phosphoric acid. Samples were then spotted onto a p81 filterplate (Whatman) and a vacuum applied. Wells were washed 3 times with 200 μL of dilute aqueous phosphoric acid before the addition of 50 μL Microscint 40 per well. Incorporation of radioactivity was determined on a Topcount microplate scintillation counter (Packard).

[1] = Oral glucose tolerance in male ZDF fa/fa rats; assay type: in vivo, rat
Description: (§2) The ability of example compounds of the present invention to improve glucose metabolism was tested in 12-13 week old male ZDF fa/fa rats. The test animals (10-15 mmol/L fasting glucose level) were dosed twice at 30 mg/kg and the glucose challenge was given at time 0. […] Most of these blood levels were below the EC50 values determined in cellular assays.
(§3) 12-13 weeks old male ZDF fa/fa rats were used to study the effect of example compounds on oral glucose tolerance. […] Body weight was recorded three times per week. Test compounds were dissolve in a formulation of 10% DMSO, 5% Tween, 5% Span 20, 30% PEG 400 and 50% water (v/v) to provide final solutions at 5 mg/mL concentration. Each experimental group contained 7 animals. After an 16 h overnight fast the test compounds were administered at 30 mg/kg per os twice (at −270 min and −30 min) before the oral glucose tolerance test was commenced (2 g glucose/kg per os as a 40% solution introduced via feeding tube). A control group was dosed in a similar manner with the vehicle only. Blood sampling for blood glucose measurement (20 μL blood) was performed at −270, 0, 15, 30, 60, 90, 120 and 180 min. Mixed venous blood was collected from the tail vein into 20-μL glass capillaries, which were placed in a standard tube filled with 1 mL solution for hemolysis. Glucose levels were measured using the glucose oxidase procedure (Super G Glukosemessgeraet; Dr Mueller Geraetebau, Freital, Germany). In addition, 50 μL blood samples were taken at 30 and 60 min after the glucose dose, placed in heparinized tubes, which were then frozen immediately in liquid nitrogen. The bioanalytical method used employed isocratic elution liquid chromatography—tandem mass spectrometry in electrospray positive ion multiple reaction monitoring mode.

[2] = Blood levels of test compounds in ZDF fa/fa rats; assay type: in vivo, rat; conditions: 30 mg/kg per os twice
Description: as §2, §3

PEPCK gene expression = PEPCK gene expression assay - qPCR in HEPG2 cells; assay type: cell-based; conditions: HEPG2; 100 nM + Dex/cAMP
Description: PEPCK gene expression was studied in HEPG2 (hepatocarcinoma) cells, seeded in 6-well plate at […] per well. The cells were serum-starved for 20 hours before treatment with dexamethasone/cAMP (stimulator of PEPCK gene expression) in the presence or absence of insulin or GSK3 inhibitor example compounds. After 3 hours treatment the cells were harvested, lysed and RNA extracted using mini RNeasy spin columns (Quiagen). The primer set COD2063/COD2064 (350 bp) was used for the PEPCK gene. The one step RT-PCR was carried out using the Lightcycler-RNA Master SYBR Green 1 Kit. The qPCR analysis calculates the number of the PCR cycles required for the PCR product amplification to reach logarithmic phase. QPCR for a housekeeping gene—28S—was used for normalisation. PEPCK is a key enzyme in gluconeogenesis in the liver and it is known to be negatively regulated by insulin via inhibition of GSK3. The effect of example compounds on PEPCK gene expression was studied in HEPG2 cells treated with dexamethasone/cAMP (a positive regulator PEPCK gene expression) in the presence or absence of insulin or GSK3 inhibitors. Example compound inhibitors of GSK3 were efficient in the abolishment of dexamethasone/cAMP induced stimulation of PEPCK gene expression in HEPG2 cells.

[3] = ZDF fa/fa rats, oral glucose tolerance, 30 mg/kg per os twice (−270 and −30 min)
[4] = male ZDF fa/fa rats, 30 mg/kg per os twice, oral glucose tolerance test

| pKi (CDK2/cyclin E) | pKi (CDK7/cyclin H) | pKi (CDK9/cyclin T1) | pIC50 (GSK3β) | pIC50 (GSK3α) | pIC50 (DYRK1A) | oral bioavailability (blood levels at 30 and 60 min after the glucose load) ([2]; male ZDF fa/fa rats) | concentration at 30 min ([2]; male, rat, whole blood, oral, ZDF fa/fa rats, time 30 min) [ng/mL] | concentration at 60 min ([2]; male, rat, whole blood, oral, ZDF fa/fa rats, time 60 min) [ng/mL] | Compound | % Glucose Decrease AUC (−270–180 min) [1, 3] [%] | % Glucose decrease-AUC (0–180 min) [1, 3] | decreased blood glucose levels [1, 4] | glucose AUC [1, 4] | PEPCK gene expression, % of maximum stimulation (PEPCK gene expression) [%] |
| --- | --- | --- | --- | --- | --- | --- | --- | --- | --- | --- | --- | --- | --- | --- |
| 6.70 | 5.64 | 7.68 | 7.82 | 7.49 | 6.45 | some oral bioavailability | 157 | 162 | Cc1c(-c2ccnc(Nc3ccc(Cl)c(C(F)(F)F)c3)n2)sc(=O)n1C [Compound 66, 5-[2-(4-Chloro-3-trifluoromethyl-phenylamino)-pyrimidin-4-yl]-3,4-dimethyl-3H-thiazol-2-one] | 20 | 17* % | statistically significant | moderate decrease |  |
|  |  |  |  |  |  |  |  |  | Insulin |  |  |  |  | 44.09 ± 11.07 |
